The values below come from US6667414B2, “Use of propargyl glycine amino propargyl diol compounds for treatment of congestive heart failure” (Pharmacia Corporation, priority 1991, dated 2003).

For orientation: IC50 means the midpoint of a concentration-inhibition curve. High values mean a need for much substance, low ones inhibition by little substance.

In one experiment the target is T1, human renin (Homo sapiens, UniProt P00797).
T1 construct: purchased National Institute for Biological Standards, London
T1 sequence (P00797 67-406): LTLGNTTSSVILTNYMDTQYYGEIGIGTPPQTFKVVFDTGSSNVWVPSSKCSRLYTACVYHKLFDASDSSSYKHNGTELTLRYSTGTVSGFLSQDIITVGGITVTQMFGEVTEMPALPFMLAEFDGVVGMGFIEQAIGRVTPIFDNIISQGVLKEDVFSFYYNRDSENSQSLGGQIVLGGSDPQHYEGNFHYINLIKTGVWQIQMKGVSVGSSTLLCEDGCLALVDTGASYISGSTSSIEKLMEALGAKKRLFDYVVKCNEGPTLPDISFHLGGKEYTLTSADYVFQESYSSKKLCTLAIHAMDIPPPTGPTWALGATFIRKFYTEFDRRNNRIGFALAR
The experiment in a line: Human renin inhibition in vitro. Format: biochemical. The settings on record: conversion of angiotensinogen to angiotensin I, 2 h at 37° C., pH 7.4. Here is the method:
Compounds of Formula I were evaluated as inhibitors of human renin in an in vitro assay, as follows: This human renin inhibition test has been previously described in detail [Papaioannou et al., Clinical and Experimental Hypertension, A7(9), 1243-1257 (1985)-]. Human renin was obtained from the National Institute for Biological Standards, London. An incubation mixture was prepared containing the following components: in a total volume of 0.25 mL: 100 mM Tris-acetate buffer at pH 7.4, 25×10^−6 Goldblatt units of renin, 0.05 mL of plasma from human volunteers taking oral contraceptives, 6.0 mM Na-EDTA, 2.4 mM phenylmethyl sulfonyl fluoride, 1.5 mM 8-hydroxyquinoline, 0.4 mg/mL bovine serum albumin (BSA), and 0.024 mg/mL neomycin sulfate. This mixture was incubated for two hours at 37° C. in the presence or absence of renin inhibitors. The produced angiotensin I was determined by radioimmunoassay (New England Nuclear kit). Test compounds to be assayed were dissolved in DMSO and diluted with 100 mM Tris-acetate buffer at pH 7.4 containing 0.5% BSA to the appropriate concentration. The final concentration of organic solvent in the reaction mixture was less than 1%. Control incubations at 37° C. were used to correct for effects of organic solvent on renin activity.

In another experiment the test system is hog renin. The settings on record: after the injection of hog renin into nephrectomized rats; cited from earlier work.

Where a SMILES comes first, the peptide text is derived from it. [ ]: non-standard residue; d: D form. The star is where a group is joined. Sta = CC(C)C[C@H](N)[C@@H](O)CC(=O)O; Isovaleryl = CC(C)CC(=O)*

On human renin, `C#CC[C@H](NC(=O)[C@@H](CC(=O)N(C)CCN(C)C)Cc1ccccc1)C(=O)N[C@@H](CC1CCCCC1)[C@@H](O)[C@@H](O)CC#C` (relative stereo) [Example 1, N1-[1R*-[[[1S,1R*-(cyclohexylmethyl)-2S*,3R*-dihydroxyhexynyl]amino]carbonyl]-3-butynyl]-N-4-[2-(dimethylamino)ethyl]-N-4-methyl-2S*-(phenylmethyl)Butanediamide] showed an IC50 of 34 nM. Turning to `CC(C)CC(=O)N[C@H](C(=O)N[C@H](C(=O)N[C@@H](CC(C)C)[C@@H](O)CC(=O)N[C@@H](C)C(=O)N[C@@H](CC(C)C)[C@@H](O)CC(=O)O)C(C)C)C(C)C` [pepstatin] (Isovaleryl-VV[Sta]A[Sta]-OH), the “blood pressure in vivo” value with hog renin is on record as “reduce blood pressure”.
